Experimental data taken from patent publication US20080248511A1, “METHODS TO QUENCH LIGHT FROM OPTICAL REACTIONS” (priority 2007, published 2008).
Like-named read-outs stand apart in the source and are kept apart here.

Legend:
firefly luciferase [1] = target: T1, firefly luciferase (Photinus pyralis, UniProt P08659); test: Detergent screen with Tergitol NP-9, firefly luciferase (Example 3); format: biochemical; conditions: 0.06% quencher in reagent solution; 0.5% Tergitol NP-9
Procedure: (§1) Unless otherwise specified, materials were obtained from Sigma-Aldrich.
(§2) The firefly luciferase and Renilla luciferase enzymes were diluted as follows. Firefly luciferase was diluted to 14 ng/ml in Delbecco's Minimal Essential (DMEM) medium (Gibco/Invitrogen) containing 0.1% Prionex®. Renilla luciferase was diluted to 10 ng/ml in DMEM medium containing 0.1% Prionex®.
(§3) The luciferase reactions were initiated by adding 50 μl of the firefly luciferase or Renilla luciferase enzyme solution to 50 μl of reagent solution. The reactions were performed as described above. The retained firefly luciferase and Renilla luciferase luminescence as well as the selectivity values for each quencher were calculated (Table 3). The values listed are based on 0.06% quencher in the reagent solution.

Renilla luciferase [2] = target: T2, Renilla luciferase (Renilla reniformis, UniProt P27652); test: Detergent screen with Tergitol NP-9, Renilla luciferase (Example 3); format: biochemical; conditions: 0.5% Tergitol NP-9; for Retained Renilla Luminescence (%): 0.06% quencher in reagent solution; for Selectivity Value: retained firefly / retained Renilla, 0.06% quencher
T2 sequence (P27652 1-311): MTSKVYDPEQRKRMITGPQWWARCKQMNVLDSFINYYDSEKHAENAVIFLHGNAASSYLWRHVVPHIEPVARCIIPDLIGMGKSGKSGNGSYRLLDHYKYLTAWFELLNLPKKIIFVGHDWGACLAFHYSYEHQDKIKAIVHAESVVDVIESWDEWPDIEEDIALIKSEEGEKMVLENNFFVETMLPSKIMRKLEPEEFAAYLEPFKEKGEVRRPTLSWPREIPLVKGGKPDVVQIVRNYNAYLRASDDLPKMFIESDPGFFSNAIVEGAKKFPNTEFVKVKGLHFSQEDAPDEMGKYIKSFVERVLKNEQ
Procedure: as §1, §2, §3

Renilla luciferase [3] = target: T2, Renilla luciferase; test: biochemical; format: biochemical; conditions: 0.5% detergent in Renilla Luciferase Assay Reagent; read-out: Retained Renilla Luciferase Luminescence (%)
firefly luciferase [4] = target: T1, firefly luciferase; test: Detergent titration with Tergitol NP-9, digitonin or no lysing agent, firefly luciferase (Example 4); format: biochemical; conditions: read-out: Relative Firefly Luc Intensity; for remaining activity at 0.0005 %: 0.0005% detergent; for remaining activity at 0.005 %: 0.0050% detergent; for remaining activity at 0.05 %: 0.0500% detergent
Procedure: For measurement of firefly luciferase-mediated luminescence, a solution containing 110 mM HEPES pH 7.5, 8 mM MgSO4, 0.05% gelatin, 7.35 ng/ml firefly luciferase (QuantiLum® Luciferase; Promega) and the content of the Steady-Glo Luciferase Substrate (Promega) at the equivalent of 1×, As in the Renilla luciferase reactions, reactions contained either no lysing agent, 0.5% Tergitol NP-9 or 20 μg/ml digitonin. The same detergents were titrated as described above and firefly luciferase-mediated luminescence was measured.

Renilla luciferase [5] = target: T2, Renilla luciferase; test: Detergent titration with Tergitol NP-9, digitonin or no lysing agent, Renilla luciferase (Example 4); format: biochemical; conditions: for remaining activity at 0.0005 % / remaining activity at 0.005 % / remaining activity at 0.05 %: read-out: Relative Renilla Luc Intensity
Procedure: Renilla luciferase-mediated luminescence was measured from samples containing 9.6 mM phosphate buffer pH 6.8, 2.7 mM KCl, 137 mM NaCl (in PBS), 0.1% gelatin, 75 nM coelentrazine (Promega) and 10.2 ng/ml Renilla luciferase. Reactions contained either no lysing agent, 0.5% Tergitol NP-9 or 20 μg/ml digitonin. The detergents to be tested were titrated to 0.05%, 0.005% or 0.0005% in the reactions prior to the addition of the Renilla luciferase. Renilla luciferase-mediated luminescence was measured as described herein.

firefly luciferase [6] = target: T1, firefly luciferase; test: biochemical; conditions: 0.5% detergent in Luciferase Assay Reagent; read-out: Retained Firefly Luciferase Luminescence (%)
Procedure: The retained luminescence for each luciferase was calculated by dividing the luminescence in the presence of the detergent by the luminescence in the absence of the test detergent. The selectivity value for each of the test detergents was determined by dividing the retained firefly luciferase luminescence by the retained Renilla luciferase luminescence.
A set of detergents (Table 2; Sigma-Aldrich) was added at 0.5% (from a 5% or 10% stock solution) to either Luciferase Assay Reagent (Promega) or Renilla Luciferase Assay Reagent (Promega) and allowed to equilibrate at room temperature.
The firefly luciferase and Renilla luciferase enzymes were diluted as follows. Firefly luciferase was diluted to 14 ng/ml in Phosphate Buffered Saline (PBS) containing 0.1% of the protein carrier Prionex® (Pentapharm). Renilla luciferase was diluted to 10 ng/ml in 1× Renilla Luciferase Lysis Buffer (Promega) containing 0.1% Prionex®. The Renilla Luciferase Lysis Buffer […] detergent micelles when using the Renilla Luciferase Assay Reagent. In the absence of other detergents, this prevents sequestering of coelenterazine which inhibits Renilla luciferase-mediated luminescence.
The luciferase reactions were initiated by adding 40 μl of either the firefly or Renilla luciferase enzyme solution to 200 μl of the appropriate reagent solution (firefly luciferase enzyme solution+firefly luciferase reagent solution or Renilla luciferase enzyme solution+Renilla luciferase reagent solution, respectively). The reactions were performed in an opaque white, 96-well plate and luminescence was measured for 0.5 seconds per well using a Turner BioSystems Veritas™ Microplate luminometer. The retained firefly luciferase and Renilla luciferase luminescence, as well as the selectivity values for each detergent, were calculated (Table 2).

T1 sequence (P08659 whole entry): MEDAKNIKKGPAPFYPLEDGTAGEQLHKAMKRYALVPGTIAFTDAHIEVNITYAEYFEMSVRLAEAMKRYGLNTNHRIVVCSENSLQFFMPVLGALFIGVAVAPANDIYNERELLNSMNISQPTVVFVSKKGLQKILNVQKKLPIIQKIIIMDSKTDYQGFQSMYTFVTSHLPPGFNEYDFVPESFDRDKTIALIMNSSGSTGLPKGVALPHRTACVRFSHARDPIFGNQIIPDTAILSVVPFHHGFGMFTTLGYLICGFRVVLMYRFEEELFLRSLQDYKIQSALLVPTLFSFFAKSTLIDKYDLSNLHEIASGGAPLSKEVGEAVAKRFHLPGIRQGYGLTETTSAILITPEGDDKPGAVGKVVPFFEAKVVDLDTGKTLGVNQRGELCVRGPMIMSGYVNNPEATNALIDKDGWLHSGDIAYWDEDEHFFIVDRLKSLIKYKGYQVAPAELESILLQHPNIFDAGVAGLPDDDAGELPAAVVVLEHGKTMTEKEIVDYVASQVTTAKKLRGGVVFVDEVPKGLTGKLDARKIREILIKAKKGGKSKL

## CCCCCCCCCCCCOCC[N+](C)(C)Cc1ccccc1.[Cl-] [Benzyldimethyl(2-dodecyloxethyl)ammonium chloride]
Firefly luciferase [1]
  Retained Firefly Luminescence (%): 174.0%
Renilla luciferase [2]
  Retained Renilla Luminescence (%): 20.5%
  Selectivity Value: 8.5

## CCCCCCCCCCCC[N+](C)(C)Cc1ccc2c(c1)CCCC2.[Cl-] [Dimethyldodecyl(5,6,7,8-tetrahydro-2-naphthylmethyl)ammonium chloride]
Firefly luciferase [1]
  Retained Firefly Luminescence (%): 112.0%
Renilla luciferase [2]
  Retained Renilla Luminescence (%): 118.0%
  Selectivity Value: 0.9

## CCCCCCCCCCCC[N+](C)(C)Cc1ccccc1-c1ccccc1.[Br-] [N-(biphenyl-2-ylmethyl)-NN-dimethyldodecyan-1-ammonium bromide]
Firefly luciferase [1]
  Retained Firefly Luminescence (%): 177.0%
Renilla luciferase [2]
  Retained Renilla Luminescence (%): 0.8%
  Selectivity Value: 221.3

## C[N+](C)(Cc1ccccc1)C1CCCCC1.[Br-] [N-benzyl-N,N-dimethylcyclohexanaminium bromide]
Firefly luciferase [1]
  Retained Firefly Luminescence (%): 90%
Renilla luciferase [2]
  Retained Renilla Luminescence (%): 76%
  Selectivity Value: 1.2

## CCCCCC[N+](C)(C)Cc1ccccc1.[Br-] [N-benzyl-N,N-dimethylhexan-1-aminium bromide]
Firefly luciferase [1]
  Retained Firefly Luminescence (%): 103%
Renilla luciferase [2]
  Retained Renilla Luminescence (%): 54%
  Selectivity Value: 1.9

## CCCCCCCCCCCC[N+](C)(C)C1c2ccccc2-c2ccccc21.[Br-] [N-dodecyl-N,N-dimethyl-9H-fluoren-9-aminium bromide]
Firefly luciferase [1]
  Retained Firefly Luminescence (%): 37%
Renilla luciferase [2]
  Retained Renilla Luminescence (%): 1%
  Selectivity Value: 37

## Cc1cc(C)c(C[N+](C)(C)C)cc1C.[Br-] [Trimethyl(2,4,5-Trimethylbenzyl)ammonium bromide]
Renilla luciferase [3]
  remaining activity at 0.5 %: 1.87%
Firefly luciferase [4]; Dig
  remaining activity at 0.0005 %: 116%
  remaining activity at 0.005 %: 52%
Firefly luciferase [4]; Terg
  remaining activity at 0.0005 %: 95%
  remaining activity at 0.005 %: 83%
Firefly luciferase [4]; Water
  remaining activity at 0.0005 %: 116%
  remaining activity at 0.005 %: 54%
Firefly luciferase [4]; Dig (20 μg/ml digitonin)
  remaining activity at 0.05 %: 1%
Firefly luciferase [4]; Terg (0.5% Tergitol NP-9)
  remaining activity at 0.05 %: 12%
Firefly luciferase [4]; Water (no lysing agent)
  remaining activity at 0.05 %: 1%
Renilla luciferase [5]; 0.0005% detergent, Dig
  Selective Inhibition (Ff Luc Inh/Ren Luc Inh): 1.8
  remaining activity at 0.0005 %: 63%
Renilla luciferase [5]; 0.0005% detergent, Terg
  Selective Inhibition (Ff Luc Inh/Ren Luc Inh): 1.0
  remaining activity at 0.0005 %: 92%
Renilla luciferase [5]; 0.0005% detergent, Water
  Selective Inhibition (Ff Luc Inh/Ren Luc Inh): 1.9
  remaining activity at 0.0005 %: 62%
Renilla luciferase [5]; 0.0050% detergent, Dig
  Selective Inhibition (Ff Luc Inh/Ren Luc Inh): 18
  remaining activity at 0.005 %: 3%
Renilla luciferase [5]; 0.0050% detergent, Terg
  Selective Inhibition (Ff Luc Inh/Ren Luc Inh): 1.2
  remaining activity at 0.005 %: 67%
Renilla luciferase [5]; 0.0050% detergent, Water
  Selective Inhibition (Ff Luc Inh/Ren Luc Inh): 17
  remaining activity at 0.005 %: 3%
Renilla luciferase [5]; 0.0500% (w:v) detergent, Terg (0.5% Tergitol NP-9)
  remaining activity at 0.05 %: 4%
Renilla luciferase [5]; 0.0500% detergent, Dig
  Selective Inhibition (Ff Luc Inh/Ren Luc Inh): 47
Renilla luciferase [5]; 0.0500% detergent, Dig (20 μg/ml digitonin)
  remaining activity at 0.05 %: 0.03%
Renilla luciferase [5]; 0.0500% detergent, Terg
  Selective Inhibition (Ff Luc Inh/Ren Luc Inh): 2.9
Renilla luciferase [5]; 0.0500% detergent, Water
  Selective Inhibition (Ff Luc Inh/Ren Luc Inh): 50
Renilla luciferase [5]; 0.0500% detergent, Water (no lysing agent)
  remaining activity at 0.05 %: 0.03%
Firefly luciferase [6]
  remaining activity at 0.5 %: 0.06%

## N-benzyl-N,N-dimethylloctan-1-aminium bromide
Firefly luciferase [1]
  Retained Firefly Luminescence (%): 134%
Renilla luciferase [2]
  Retained Renilla Luminescence (%): 13%
  Selectivity Value: 10.3
